This assay has as its system HIV-IIIb. As to the kind of experiment: Test A: Antiviral Assay in MT4 Cells. The settings on record: Human immunodeficiency virus 1, IIIB, MT4, 120 h, Table 2; MT-4 cells infected with HIV-IIIb, 5 days of incubation, CellTiter-Glo; read-out: EC50. In kind it is cell-based. A digest of the protocol: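 Read-out: CellTiter-Glo chemiluminescence after 5-day incubation at 37 °C. Compounds tested as 3-fold serial dilutions (10 concentrations, quadruplicate) in RPMI 1640 with 10% FBS, on MT-4 cells pre-infected at 37 °C with HIV-IIIb at 0.004 m.o.i.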
Consider `Cc1cc2nc(-c3ccnc(N4CCN(C)C[C@@H]4C)n3)sc2c(-c2ccc(Cl)cc2)c1[C@H](OC(C)(C)C)C(=O)O` [Compound 337], for which the EC50 stood at 4 nM.

Regarding `COc1ccc(-c2cc(-c3nc4cc(C)c([C@H](OC(C)(C)C)C(=O)O)c(-c5ccc(Cl)cc5)c4s3)cnn2)cc1OC` [Compound 338], the EC50 was found to be 11 nM.

Turning to `Cc1cc2nc(-c3ccnc(N4CCN(C5CC5)CC4)n3)sc2c(-c2ccc(Cl)cc2)c1[C@H](OC(C)(C)C)C(=O)O` [Compound 339], the EC50 worked out at 11 nM.

Regarding `Cc1cc2nc(-c3ccnc(C4CCOCC4)n3)sc2c(-c2ccc(Cl)cc2)c1[C@H](OC(C)(C)C)C(=O)O` [Compound 340], the EC50 amounted to 9 nM.

Regarding `Cc1cc2nc(-c3ccnc(C4=CCOCC4)n3)sc2c(-c2ccc(Cl)cc2)c1[C@H](OC(C)(C)C)C(=O)O` [Compound 341], the EC50 was found to be 14 nM.

Turning to `Cc1cc2nc(-c3ccnc(C4=CCN(C)CC4)n3)sc2c(-c2ccc(Cl)cc2)c1[C@H](OC(C)(C)C)C(=O)O` [Compound 342], the 50% effective concentration (EC50) was determined as 5 nM.

As for `Cc1cc2nc(-c3ccnc(N4CCOCC4)n3)sc2c(-c2ccc(Cl)cc2)c1[C@H](OC(C)(C)C)C(=O)O` [Compound 343], the EC50 was determined as 26 nM.

Regarding `Cc1cc2nc(-c3ccnc(N4CCN(C)CC4)n3)sc2c(-c2ccc(Cl)cc2)c1[C@H](OC(C)(C)C)C(=O)O` [Compound 344], the EC50 was found to be 6 nM.

For the molecule `COc1cc(-c2cc(-c3nc4cc(C)c([C@H](OC(C)(C)C)C(=O)O)c(-c5ccc(Cl)cc5)c4s3)ccn2)cnc1OC` [Compound 345], the 50% effective concentration (EC50) was 28 nM.

`Cc1cc2nc(-c3ccnc(-c4cnn(C(C)(C)C)c4)n3)sc2c(-c2ccc(Cl)cc2)c1[C@H](OC(C)(C)C)C(=O)O` [Compound 346]: the EC50 was 11 nM.

Consider `Cc1cc2nc(-c3ccnc(-c4cnn(C)c4C)n3)sc2c(-c2ccc(Cl)cc2)c1[C@H](OC(C)(C)C)C(=O)O` [Compound 347], for which the EC50 amounted to 42 nM.

As for `Cc1cc2nc(-c3ccc4c(cnn4C4CCOCC4)c3)sc2c(-c2ccc(Cl)cc2)c1[C@H](OC(C)(C)C)C(=O)O` [Compound 348], the EC50 came out at 30 nM.

For the molecule `Cc1cc2nc(-c3ccc4[nH]ncc4c3)sc2c(-c2ccc(Cl)cc2)c1[C@H](OC(C)(C)C)C(=O)O` [Compound 349], the EC50 was found to be 42 nM.

As to `COc1ccc(-c2cc(-c3nc4cc(C)c([C@H](OC(C)(C)C)C(=O)O)c(-c5ccc(Cl)cc5)c4s3)ccn2)cc1OC` [Compound 350], the EC50 came to 14 nM.

With `CCn1ncc2cc(-c3nc4cc(C)c([C@H](OC(C)(C)C)C(=O)O)c(-c5ccc(Cl)cc5)c4s3)ccc21` [Compound 351], the EC50 amounted to 21 nM.

Turning to `CCCn1ncc2cc(-c3nc4cc(C)c([C@H](OC(C)(C)C)C(=O)O)c(-c5ccc(Cl)cc5)c4s3)ccc21` [Compound 352], the EC50 was 29 nM.

For the molecule `Cc1cc2nc(-c3ccc4c(cnn4C(C)C)c3)sc2c(-c2ccc(Cl)cc2)c1[C@H](OC(C)(C)C)C(=O)O` [Compound 353], the EC50 stood at 31 nM.

As for `Cc1cc2nc(-c3ccc(-c4ccc(Br)cc4)cc3)sc2c(-c2ccc(Cl)cc2)c1[C@H](OC(C)(C)C)C(=O)O` [Compound 354], the EC50 is 1370 nM.

For `COc1ncc(-c2ccc(-c3nc4cc(C)c([C@H](OC(C)(C)C)C(=O)O)c(-c5ccc(Cl)cc5)c4s3)cc2)cn1` [Compound 355], the EC50 came to 182 nM.

On to `Cc1cc2nc(-c3ccc(-c4cnc(=O)[nH]c4)cc3)sc2c(-c2ccc(Cl)cc2)c1[C@H](OC(C)(C)C)C(=O)O` [Compound 356], for which the EC50 amounted to 3330 nM.

`Cc1cc2nc(-c3nccc(-c4ccc5c(cnn5C)c4)n3)sc2c(-c2ccc(Cl)cc2)c1[C@H](OC(C)(C)C)C(=O)O` [Compound 357]: the EC50 turned out to be 12 nM.

Consider `Cc1cc2nc(-c3ccc4c(n3)c(C)nn4C)sc2c(-c2ccc(Cl)cc2)c1[C@H](OC(C)(C)C)C(=O)O` [Compound 358], for which the EC50 was 241 nM.

`Cc1cc2nc(-c3ccc4nn(C)c(C)c4n3)sc2c(-c2ccc(Cl)cc2)c1[C@H](OC(C)(C)C)C(=O)O` [Compound 359]: the EC50 came to 21 nM.

As for `Cc1cc2nc(-c3ccc4nn(C5CCN(C)CC5)cc4n3)sc2c(-c2ccc(Cl)cc2)c1[C@H](OC(C)(C)C)C(=O)O` [Compound 360], the EC50 turned out to be 13 nM.

In the case of `Cc1cc2nc(-c3ccc4c(cnn4C4CCN(C)CC4)n3)sc2c(-c2ccc(Cl)cc2)c1[C@H](OC(C)(C)C)C(=O)O` [Compound 361], the EC50 is 20 nM.

Take `Cc1cc2nc(-c3c4cnccc4nn3C)sc2c(-c2ccc(Cl)cc2)c1[C@H](OC(C)(C)C)C(=O)O` [Compound 362]: the EC50 worked out at 21 nM.

On to `Cc1cc2nc(-c3nn(C)c4ccncc34)sc2c(-c2ccc(Cl)cc2)c1[C@H](OC(C)(C)C)C(=O)O` [Compound 363], for which the EC50 turned out to be 15 nM.

Turning to `Cc1cc2nc(-c3cc4cn(C)nc4cn3)sc2c(-c2ccc(Cl)cc2)c1[C@H](OC(C)(C)C)C(=O)O` [Compound 364], the concentration giving a half-maximal response (EC50) was 9 nM.

Take `Cc1cc2nc(-c3cc4cnn(C)c4cn3)sc2c(-c2ccc(Cl)cc2)c1[C@H](OC(C)(C)C)C(=O)O` [Compound 365]: the EC50 was 29 nM.

Regarding `Cc1cc2nc(-c3ccc4nn(C)cc4n3)sc2c(-c2ccc(Cl)cc2)c1[C@H](OC(C)(C)C)C(=O)O` [Compound 366], the EC50 was found to be 6 nM.

As for `Cc1cc2nc(-c3ccc4c(cnn4C)n3)sc2c(-c2ccc(Cl)cc2)c1[C@H](OC(C)(C)C)C(=O)O` [Compound 367], the concentration for a half-maximal effect (EC50) is 6 nM.

Take `Cc1cc2nc(-c3ccnc(-c4cc5cn(C)nc5cn4)c3)sc2c(-c2ccc(Cl)cc2)c1[C@H](OC(C)(C)C)C(=O)O` [Compound 368]: the EC50 came out at 5 nM.

`Cc1cc2nc(-c3ccnc(-c4cc5cnn(C)c5cn4)c3)sc2c(-c2ccc(Cl)cc2)c1[C@H](OC(C)(C)C)C(=O)O` [Compound 369]: the EC50 was 8 nM.

Turning to `Cc1cc2nc(-c3ccnc(-c4ccc5nn(C)cc5n4)c3)sc2c(-c2ccc(Cl)cc2)c1[C@H](OC(C)(C)C)C(=O)O` [Compound 370], the EC50 stood at 4 nM.

Turning to `Cc1cc2nc(-c3ccnc(-c4ccc5nn(C6COC6)cc5c4)c3)sc2c(-c2ccc(Cl)cc2)c1[C@H](OC(C)(C)C)C(=O)O` [Compound 371], the EC50 worked out at 7 nM.

As to `Cc1cc2nc(-c3ccnc(-c4ccc5c(cnn5C5COC5)c4)c3)sc2c(-c2ccc(Cl)cc2)c1[C@H](OC(C)(C)C)C(=O)O` [Compound 372], the EC50 amounted to 7 nM.

Regarding `CCCn1ncc2cc(-c3cc(-c4nc5cc(C)c([C@H](OC(C)(C)C)C(=O)O)c(-c6ccc(Cl)cc6)c5s4)ccn3)ccc21` [Compound 373], the EC50 stood at 37 nM.

As to `Cc1cc2nc(-c3ccnc(-c4ccc5c(cnn5C(C)C)c4)c3)sc2c(-c2ccc(Cl)cc2)c1[C@H](OC(C)(C)C)C(=O)O` [Compound 374], the EC50 amounted to 45 nM.

With `Cc1cc2nc(-c3cc(-c4ccc5c(cnn5C)c4)ccn3)sc2c(-c2ccc(Cl)cc2)c1[C@H](OC(C)(C)C)C(=O)O` [Compound 375], the EC50 is 228 nM.

Take `Cc1cc2nc(-c3ccnc(-c4cnn(C)c4C)c3)sc2c(-c2ccc(Cl)cc2)c1[C@H](OC(C)(C)C)C(=O)O` [Compound 376]: the EC50 amounted to 19 nM.

`Cc1cc2nc(-c3cnc4c(c3)c(N3CCN(C)CC3)cn4C)sc2c(-c2ccc(Cl)cc2)c1[C@H](OC(C)(C)C)C(=O)O` [Compound 377]: the EC50 came to 32 nM.

As to `Cc1cc2nc(-c3cnc4c(c3)c(C3=CCN(C)CC3)cn4C)sc2c(-c2ccc(Cl)cc2)c1[C@H](OC(C)(C)C)C(=O)O` [Compound 378], the EC50 worked out at 51 nM.
